Data as given in ChEMBL document CHEMBL6083177, “Targeting bromodomian-containing protein 8 (BRD8): An advanced tool to interrogate BRD8” (Eur J Med Chem, 2024).

Experiments:
[1] = target: T1, Bromodomain-containing protein 9 (Homo sapiens, UniProt Q9H8M2); experiment: Inhibition of BRD9 (unknown origin) by TR-FRET assay
T1 sequence (Q9H8M2 whole entry): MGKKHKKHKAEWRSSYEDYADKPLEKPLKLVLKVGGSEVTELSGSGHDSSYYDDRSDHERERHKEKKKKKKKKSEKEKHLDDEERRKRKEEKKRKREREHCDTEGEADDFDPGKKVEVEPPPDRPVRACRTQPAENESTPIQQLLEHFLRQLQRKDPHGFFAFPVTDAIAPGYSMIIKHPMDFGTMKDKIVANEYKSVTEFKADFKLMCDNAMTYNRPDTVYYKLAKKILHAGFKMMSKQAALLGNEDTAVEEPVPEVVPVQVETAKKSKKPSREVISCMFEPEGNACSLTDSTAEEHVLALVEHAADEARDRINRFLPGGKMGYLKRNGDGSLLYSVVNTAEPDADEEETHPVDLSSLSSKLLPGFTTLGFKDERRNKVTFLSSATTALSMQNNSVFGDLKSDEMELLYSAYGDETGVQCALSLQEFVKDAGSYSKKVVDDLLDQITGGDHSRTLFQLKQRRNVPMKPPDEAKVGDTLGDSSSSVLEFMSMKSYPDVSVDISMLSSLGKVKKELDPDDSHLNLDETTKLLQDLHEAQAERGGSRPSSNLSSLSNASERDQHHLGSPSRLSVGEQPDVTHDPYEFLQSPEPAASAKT

[2] = Inhibition of BRD4/BRD1 (unknown origin)
[3] = Inhibition of BRD8/BRD1 (unknown origin)
[4] = target: T2, Bromodomain-containing protein 1 (Homo sapiens, UniProt O95696); experiment: Inhibition of BRD1 (unknown origin)
T2 sequence (O95696 whole entry): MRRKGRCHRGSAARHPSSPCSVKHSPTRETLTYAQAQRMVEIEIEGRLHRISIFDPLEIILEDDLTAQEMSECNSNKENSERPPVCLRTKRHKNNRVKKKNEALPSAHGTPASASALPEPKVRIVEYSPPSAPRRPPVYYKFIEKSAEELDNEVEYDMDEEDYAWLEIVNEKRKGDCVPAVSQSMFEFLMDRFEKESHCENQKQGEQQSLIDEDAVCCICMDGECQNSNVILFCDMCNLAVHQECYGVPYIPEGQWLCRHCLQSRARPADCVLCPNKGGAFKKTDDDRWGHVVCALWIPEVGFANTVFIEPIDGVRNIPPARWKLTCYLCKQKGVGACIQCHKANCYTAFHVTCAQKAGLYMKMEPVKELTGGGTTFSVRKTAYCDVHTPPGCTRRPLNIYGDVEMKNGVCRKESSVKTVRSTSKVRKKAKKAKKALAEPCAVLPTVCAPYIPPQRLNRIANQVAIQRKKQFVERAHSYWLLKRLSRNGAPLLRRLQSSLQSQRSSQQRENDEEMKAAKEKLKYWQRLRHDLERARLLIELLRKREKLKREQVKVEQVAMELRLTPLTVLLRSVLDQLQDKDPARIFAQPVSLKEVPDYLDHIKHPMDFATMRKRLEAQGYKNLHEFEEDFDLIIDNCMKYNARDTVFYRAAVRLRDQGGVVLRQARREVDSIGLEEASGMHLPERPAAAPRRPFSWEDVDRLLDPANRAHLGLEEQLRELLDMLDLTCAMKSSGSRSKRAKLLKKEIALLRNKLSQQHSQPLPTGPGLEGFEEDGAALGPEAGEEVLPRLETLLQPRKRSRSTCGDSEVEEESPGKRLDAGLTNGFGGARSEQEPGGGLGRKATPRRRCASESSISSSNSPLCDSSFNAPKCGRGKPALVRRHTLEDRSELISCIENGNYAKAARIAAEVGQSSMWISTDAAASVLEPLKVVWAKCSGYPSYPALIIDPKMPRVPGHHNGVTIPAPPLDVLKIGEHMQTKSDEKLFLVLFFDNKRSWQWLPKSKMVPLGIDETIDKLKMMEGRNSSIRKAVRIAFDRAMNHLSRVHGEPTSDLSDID

[5] = Inhibition of BRD8/BRD1 (unknown origin) by Alpha Screen assay
[6] = Inhibition BRD9/BRD1 (unknown origin) by Alpha Screen assay

IC50 [1] [nM] | IC50 [2] [nM] | IC50 [3] [nM] | IC50 [4] [nM] | IC50 [5] [nM] | IC50 [6] [nM] | SMILES
20 | > 10000 | 160 | – | – | – | COc1cc(-c2cn(C)c(=O)c3cc(F)ccc23)c(OC)cc1CN(C)C
> 10000 | > 10000 | 80 | – | – | – | COc1cc(CN(C)C)cc(OC)c1-c1cn(C)c(=O)c2cnccc12
< 10 | 7400 | – | 490 | – | – | COc1cc(-c2cn(C)c(=O)c3cnccc23)c(OC)cc1CN1CC(N)C1
– | – | – | – | 12 | 10000 | COc1cc(CN(C)C)cc(OC)c1-c1cn(C)c(=O)c2cc(F)ccc12
